In experiment [1] the test system is patient with bowel pain associated with menses. As to conditions: open injection at 4 hours after the placebo saline administration.
Description: The patients were greeted in a waiting room, escorted to an examination room, and introduced to the study. […] A one-hour NH condition preceded either the RL or RP administration in both sessions. Thus, patients rated their rectal pain for one hour at 15-minute intervals before injection of the rectal agent (NH) and 15 min, 30 min, 45 min, 1 hour, 2 hours, 4 hours, and 6 hours afterwards. Both agents were applied through a plastic syringe. […] After all of the sessions were completed, the patients were debriefed.
For experiment [2], the system named is patients with pain associated with IBS.
Excerpt: Ten Caucasian pre-menopausal women with IBS participated in the study. The mean age was 33 (±4) years. All participants completed a GI symptom questionnaire and received a physical examination by an experienced gastroenterologist. The diagnosis of IBS was made based on the ROME II criteria and exclusion of organic disease (Thompson et al., 1999). All the patients had diarrhea-predominant IBS and had symptoms for at least 5 years. All of the IBS patients were carefully screened to verify that each patient had no clinical criteria for fibromyalgia or chronic pain condition.
All subjects were asked to fast for 12 hours and self-administer one Fleets® enema (CB Fleet Co., Inc., Lynchberg, Va.) at least two hours prior to arriving for the experimental procedures. […] A validated visual analogue scale was used to measure the subjects' perceived pain (Price, 1994).
A one-hour NH condition preceded either the RL or RP administration in both sessions. Thus, patients rated their rectal pain for one hour at 15-minute intervals before injection of the rectal agent (NH) and 15 min, 30 min, 45 min, 1 hour, 2 hours, 4 hours, and 6 hours afterwards. Both agents were applied through a plastic syringe.
The pain rating at each post-treatment time point was subtracted from the baseline rating to create a pain intensity difference score (PID) for each post-treatment time point of each patient. […]

`CCN(CC)CC(=O)Nc1c(C)cccc1C` [lidocaine]: in experiment [1], the “effect of open injection on bowel pain” value was “reversed bowel pain”. The “duration of pain ameliorating effect in IBS patients” value in experiment [2] is given as “at least 4 hours”.

Source of the values: US20040142968A1, “Method and kit for treating lower bowel pain” (priority 2003, published 2004).
